Results from patent US10690657B2, “Epithelial tissue model” (Nederlandse Organisatie voor …, priority 2012, dated 2020).

Columns and labels:
porcine ileal tissue = assay: Translocation across porcine ileal tissue; type: in vitro ADME; details: between 0 and 60 minutes (FIG. 11)
Protocol: Translocation of the bacterial endotoxin lipopoly-saccharide (LPS) across the porcine ileal tissue during incubation time.

porcine jejunal tissue [1] = assay: Transport (apical to basolateral) across porcine jejunal tissue, Papp; details: animal of 12 kg body weight in comparison to an animal of 17 or 20 kg (FIG. 10)
Excerpt: (§1) After anesthesia of the animal and resection of intestinal tissue, the tissue was directly added to ice-cold carbonated (5% CO2 and 95% O2) KRB buffer, pH 7.4, further referred to as KRB buffer. • 2. Intestinal tissue was transported to the test site in ice-cold KRB buffer • 3. At the test site, the intestinal tissue was cut open, rinsed with ice-cold KRB buffer when needed, placed on a petridish, submerged in ice-cold KRB buffer and muscle layers were stripped of. • 4. Intestinal segments with a diameter of 20 mm were punched, added to ice-cold KRB buffer, and kept on ice. • 5. After collecting all the segments needed for the incubation, the system was assembled (including to a total of 24 segments per system) and placed on ice. […] Subsequently, samples were taken from the apical and basolateral compartments for further analysis either using liquid scintillation counting (LSC), UV-Absorbance, Fluorescence, High Pressure Liquid Chromatography (HPLC), Liquid chromatography-Mass Spectrometry (LCMS), Liquid chromatography-Tandem Mass Spectrometry (LC-MSMS), Enzyme-Linked Immunosorbent Assay (ELISA), or Radio-Immuno Assay (RIA). • 11. […]
(§2) The apparent permeability value (Papp) is calculated using the following equation: Papp=(dQ/dt)/(A*C0), where dQ/dt refers to the permeability rate (mol/s), A is the surface area filter insert (cm2) and C0 is the initial concentration (mol/L). […]

porcine jejunal tissue [2] = test system: porcine jejunal tissue
Excerpt: as §1, §2

Compound: lipopolysaccharide [LPS]
- Lag time of transport across porcine ileal tissue (porcine ileal tissue): clear lag time of transport

Compound: Cn1c(N)nc2ncc(-c3ccccc3)cc21 [[14C]-PhIP, 2-amino-1-methyl-6-phenylimidazo[4,5-b]pyridine]
- Transport across porcine jejunal tissue from animals with a different age (porcine jejunal tissue [1]): higher transport

Compound: Cn1c(=O)c2c(ncn2C)n(C)c1=O [caffeine]
- Apparent permeability (Papp) over time (porcine jejunal tissue [2]): constant Papp value over time
